In PMC9743095 (Journal of Medicinal Chemistry, 2022):
Where two headings read alike, the source gives them in different places.

Assays:
Format in all cases: cell-based
CRL cell line = assay: ATP viability assay; conditions: for CC50: Homo sapiens, read-out: LC50
Method: HL-60 (ATCC CCL-240), K562 (ATCC CCL-243), CCRF-CEM (ATCC CRM-CCL-119), and RL (ATCC CRL-2261) leukemia cell lines were obtained from the American Type Culture Collection (ATCC), Middlesex. HL-60 and K562 cell lines are deoxynucleotidyl transferase-negative (TdT^–ve), whereas CCRF-CEM cell line is TdT^+ve. They were cultured in RPMI-1640 medium (Sigma-Aldrich, U.K.), which were supplemented with 10% fetal bovine serum (FBS) (PAA Laboratories), 1% amphotericin B (5.5 mL), and 1% penicillin/streptomycin (5.5 mL) (PAA Laboratories) and grown in flasks at 37 °C in an incubator with 5% CO2. For the studies with inhibitors, the cells were treated with 10 μM nitrobenzylthioinosine (NBTI, hENT inhibitor) or 1 μM EHNA (EHNA hydrochloride) or A-134974 (A-134974 dihydrochloride hydrate) and left for 5 min before adding the drug. The cells were then incubated for 2 h at 37 °C with 5% CO2.
The amount of ATP was used as a measurement of cell number and cell viability. ATP ViaLightTM plus assay kit (Lonza: Product No. LT07-121) to detect ATP in cells treated in luminescence compatible 96-well plates (initial concentration of cells was 1 × 10^4 cells/well) with Cordycepin and ProTides at concentrations of 0, 0.1, 0.5, 1, 5, and 10 μM, followed by incubation for 72 h at 37 °C in an incubator with 5% CO2. For inhibitor studies, 10 μM NBTI or 1 μM EHNA or A-134974 was added and left for 5 min before adding the drugs. After incubation, 50 μL of cell lysis reagent was added to the 96-well plates to release the intracellular ATP, followed by 100 μL of ATP monitoring reagent (AMR). The luminescent values of each well were determined using FLUOstar OPTIMA microplate reader (BMG Labtech), which converted ATP into light using luciferase enzyme. Therefore, the amount of luminescence produced was directly proportional to the amount of ATP.

NCI-H929 = assay: cells
How it was run: (§1)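 Growth inhibition is assessed by MTS conversion, read as absorbance, following a three-day (72 h) compound incubation. Nine concentrations descending 3.16-fold from 198 μM are run in duplicate.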

RL = assay: cells
How it was run: as §1

HT29 = assay: cells
How it was run: as §1

MOLT-4 = assay: cells; conditions: Homo sapiens
How it was run: as §1

HL-60 = assay: cells; conditions: Homo sapiens
How it was run: as §1

MCF-7 = assay: cells; conditions: Homo sapiens, MCF7, 72 h
How it was run: as §1

HepG2 = assay: cells; conditions: Homo sapiens
How it was run: as §1

K562 = assay: cells; conditions: Homo sapiens
How it was run: as §1

CCRF-CEM = assay: cells; conditions: Homo sapiens, 72 h
How it was run: as §1

BxPC-3 = assay: cells
How it was run: as §1

Z138 = assay: cells
How it was run: as §1

KG-1 = assay: cells; conditions: Homo sapiens, KG-1, 72 h, read-out: LC50
How it was run: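 Antiproliferative effect: 72 h treatment, MTS colorimetric endpoint (4 h at 37 °C). Dose range topped at 198 μM, 3.16-fold titration.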

HS445 = assay: cells
How it was run: as §1

RPMI-8226 = assay: cells
How it was run: as §1

Jurkat = assay: cells; conditions: Jurkat
How it was run: as §1

SW620 = assay: cells
How it was run: as §1

MV4-11 = assay: cells
How it was run: as §1

MIA PaCa-2 = assay: cells
How it was run: as §1

HEL92.1.7 = assay: cells
How it was run: as §1

THP-1 = assay: cells
How it was run: as §1

[1] = Homo sapiens, 72 h, read-out: LC50
[2] = maximum inhibitory effect over concentration range

For `Nc1ncnc2c1ncn2[C@@H]1O[C@H](CO)C[C@H]1O` [3′-dA, 3′-Deoxyadenosine, reference compound], the “improvement of LC50 on inhibition of ADA with EHNA” value (CRL cell line; CRL) was 2 fold, the CC50 (CRL cell line; 72 h) was 24.5 µM and the CC50 (CRL cell line) was 7.3 µM. It also gave a CC50 (NCI-H929; Homo sapiens, NCI-H929, 72 h, read-out: LC50) of over 198 µM, an MI% (NCI-H929; NCI-H929, maximum inhibitory effect over concentration range) of 24% and a CC50 (RL; [1]) of over 198 µM. It also gave an MI% (RL; [2]) of 17%, an MI% (HT29; HT29, maximum inhibitory effect over concentration range) of 44% and a CC50 (HT29; Homo sapiens, HT-29, 72 h, read-out: lC50) of over 198 µM. It also gave an Emax (MOLT-4; 72 h, MOLT-4, maximum inhibitory effect over concentration range, read-out: MI%) of 52%, a CC50 (MOLT-4; MOLT-4, 72 h, read-out: LC50) of 152 µM and an Emax (HL-60; 72 h, HL-60, maximum inhibitory effect over concentration range, read-out: MI%) of 88%. The CC50 (HL-60; HL-60, 72 h, read-out: LC50) was 76.8 µM, the CC50 (MCF-7; read-out: LC50) was 34.2 µM and the Emax (MCF-7; MCF-7, maximum inhibitory effect over concentration range, read-out: MI%) was 78%. For the same compound, the Emax (HepG2; 72 h, HepG2, maximum inhibitory effect over concentration range, read-out: MI%) was 66%, the CC50 (HepG2; HepG2, 72 h, read-out: LC50) was 142 µM and the Emax (K562; 72 h, K562, maximum inhibitory effect over concentration range, read-out: MI%) was 88%. The CC50 (K562; K562, 72 h, read-out: LC50) was 59.3 µM, the Emax (CCRF-CEM; maximum inhibitory effect over concentration range, read-out: MI%) was 12% and the CC50 (CCRF-CEM; read-out: LC50) was over 198 µM. The MI% (BxPC-3; BxPC-3, maximum inhibitory effect over concentration range) was 22%, the CC50 (BxPC-3; Homo sapiens, BXPC-3, 72 h, read-out: LC50) was over 198 µM and the CC50 (Z138; Homo sapiens, Z-138, 72 h, read-out: LC50) was 12.2 µM. For the same compound, the MI% (Z138; Z138, maximum inhibitory effect over concentration range) was 95%, the CC50 (KG-1) was 70.8 µM and the MI% (HS445; HS445, maximum inhibitory effect over concentration range) was 2%. For the same compound, the CC50 (HS445; Homo sapiens, Hs 445, 72 h, read-out: LC50) was over 198 µM, the CC50 (RPMI-8226; Homo sapiens, RPMI-8226, 72 h, read-out: LC50) was over 198 µM and the MI% (RPMI-8226; RPMI-8226, maximum inhibitory effect over concentration range) was 1%. For the same compound, the CC50 (Jurkat; [1]) was over 198 µM, the MI% (Jurkat; [2]) was 20% and the CC50 (SW620; Homo sapiens, SW-620, 72 h, read-out: LC50) was over 198 µM. The MI% (SW620; SW620, maximum inhibitory effect over concentration range) was 10%, the CC50 (MV4-11; Homo sapiens, MV4-11, 72 h, read-out: LC50) was over 198 µM and the MI% (MV4-11; MV4-11, maximum inhibitory effect over concentration range) was 1%. For the same compound, the CC50 (MIA PaCa-2; Homo sapiens, MIA PaCa-2, 72 h, read-out: LC50) was over 198 µM, the MI% (MIA PaCa-2; MIA PaCa-2, maximum inhibitory effect over concentration range) was 35% and the MI% (HEL92.1.7; HEL92.1.7, maximum inhibitory effect over concentration range) was 88%. The CC50 (HEL92.1.7; Homo sapiens, HEL 92.1.7, 72 h, read-out: LC50) was 68.9 µM, the CC50 (THP-1; Homo sapiens, THP-1, 72 h, read-out: LC50) was over 198 µM and the MI% (THP-1; THP-1, maximum inhibitory effect over concentration range) was “–3%”.
